In US8940340B2, “Systems and methods for maintaining the dominance of Nannochloropsis in an algae cultivation system” (Aurora Algae, Inc., priority 2009, dated 2015):

Columns and labels:
Nannochloropsis [1] = assay: hypochlorite kill curve: dry biomass productivity of laboratory Nannochloropsis cultures; format: cell-based; conditions: for Mean Productivity of Nannochloropsis: daily addition
Method: Algal cultivation: 800 ml cultures are maintained in one inch thick Roux flasks with continuous magnetic stirring. Continuous illumination at 700 MicroEinsteins per meter squared per second is provided by four 54-watt T5 fluorescent bulbs rated with a correlated color temperature of […]. 1% CO2 is bubbled through […] rate sufficient to maintain a pH between 7.0 and 8.5. Photoautotrophic growth is maintained on UFM media formulated with artificial seawater (35 g/L Instant Ocean) containing 720 mg/L urea, 168 mg/L K2HPO4, 1.5 ml/L of a metals solution and 1 ml/L of a vitamin solution. The metals solution contains 39.7 g/L Fe(III)Cl3(6H2O), 30.0 g/L EDTA, 1.2 g/L MnCl2(4H2O), 0.08 g/L CoCl2(6H2O), 0.16 g/L ZnSO4(7H2O), 0.067 g/L CuSO4(5H2O), 0.023 g/L Na2MoO4(2H2O). The vitamins solution contains 0.001 g/L vitamin B12, 0.001 g/L Biotin, and 0.2 g/L Thiamine. Cultures are diluted by exchanging 400 ml of culture with fresh media every day at the same time. From the 400 ml that are removed, the dry biomass concentration is determined as below. Determination of culture biomass concentration: A sample of the culture between 0.5 and five milliliters is vacuum filtered through a pre-rinsed and pre-ashed Whatman GF/C glass microfiber filter disc. The cake is rinsed with twenty milliliters of 0.7M ammonium formate and dried for at least 2 hours at 105° C. The dried sample is weighed on an analytical balance and then ashed at 550° C. for at least 1 hour. The post ash weight is subtracted from the pre-ash weight and divided by the volume of the sample to get the ash-free dry biomass density in milligrams per milliliter. Given the dilution volume and the previous day's dry biomass concentration, the current day's dry biomass concentration can be used to establish the culture's dry biomass productivity in grams per liter per day. This productivity value can then be compared across different experimental conditions. For the hypochlorite kill curve, four cultures are measured for productivity as above, each of which receives a different dose of sodium hypochlorite with the fresh media that is added at dilution time. The final concentration of sodium hypochlorite following dilution for each of the four cultures is 0, 20, 40 and 80 milligrams per liter.

Nannochloropsis [2] = assay: outdoor open pond cultivation with chlorine addition (condition four)
Method: Chlorine compounds may be added directly to the cultivation vessel. They may be added to the water of dilution of the cultivation vessel. In either case they may be added in solid (granular) form, liquid form, or as chlorine gas. In experiments performed by the inventors, the chlorine was added as a liquid (e.g., sodium hypochlorite). Typically, 10-12% solutions of sodium hypochlorite were diluted 10 to 100 fold and added directly to the cultivation reactor to achieve the initial concentration of sodium hypochlorite cited in each case.
(§1) In the following examples, Nannochloropsis was grown in outdoor, open, ponds in Vero Beach, Fla. The climate in Vero Beach is semitropical, with mild winters and hot, humid summers. It is a challenging climate for keeping outdoor algal cultures stable and productive. The overnight warmth encourages predation by protozoa, rotifers, and crustaceans. The humidity allows the airborne transport of competing algae, and thus increases the rate of invasion. In some of the examples the techniques applied were successful in keeping Nannochloropsis as the dominant alga, at ninety-five percent (95%) to nearly one-hundred percent (100%) of the algal biomass, even when competitors and/or predators were intentionally introduced to the algae cultivation system. In some cases, predators were undetectable most of the time, even after they were intentionally introduced.
Ten ponds (four 1.4 square meter, four 3 square meter, and two approximately 200 square meter) were used to test many conditions of salinity and chlorination over fifteen months. Not all of the conditions were run for that whole time period. The results from the following seven conditions are summarized below: 1) 35-36 PPT (full) seawater salinity, 2) 28-30 PPT (dilution of full seawater with fresh water in a ratio of 3:1), 3) 22-24 PPT (dilution of full seawater with fresh water in a ratio of about 2:1), 4) condition no. 3 with chlorine added to the pond every other day to an initial concentration of sodium hypochlorite of 3 ppm, 5) 10-12 PPT (dilution of full seawater with fresh water in a ratio of about 1:2), 6) 5-7 PPT (dilution of full seawater with fresh water in a ratio of about 1:6. and 7) about 1 PPT (dilution of seawater with fresh water in a ratio of about 1:40).
Condition four was run from Oct. 4, 2007 until Jun. […] Commercial chlorine solutions were added to the algae cultivation systems every other day to obtain an initial concentration of 2.5-3 mg of sodium hypochlorite. […] The Nannochloropsis was cultivated without interruption and at greater than 95% dominance, throughout the entire cultivation period (over eight months). […] Species added included Tetraselmis and Dunaliella, along with amoeba, protozoa, and crustaceans. The Tetraselmis and Dunaliella cultures were decimated by the predators. The predators were not observable in the Nannochloropsis cultures after a few days.

[3] = tested on: predators (amoeba, protozoa, and crustaceans); assay: outdoor open pond cultivation with chlorine addition: growth of introduced predators; conditions: 2.5-3 mg every other day, 22-24 PPT
Method: as §1
Ten ponds (four 1.4 square meter, four 3 square meter, and two approximately 200 square meter) were used to test many conditions of salinity and chlorination over fifteen months. Not all of the conditions were run for that whole time period. The results from the following seven conditions are summarized below: 1) 35-36 PPT (full) seawater salinity, 2) 28-30 PPT (dilution of full seawater with fresh water in a ratio of 3:1), 3) 22-24 PPT (dilution of full seawater with fresh water in a ratio of about 2:1), 4) condition no. […]

For `OCl` [sodium hypochlorite], the “survival of Nannochloropsis cultures after extremely high exposure” value (Nannochloropsis [1]; above 80 milligrams/liter, exposure not prolonged) was “recover”, the “productivity of Nannochloropsis in the first two days following administration” value (Nannochloropsis [1]; at least 80 milligrams/liter) was “zero productivity” and the “time for Nannochloropsis to recover after shock injection” value (Nannochloropsis [1]; shock amount, initial concentration 40-80 milligrams/liter or higher) was “two to three”. For the same compound, the “Mean Productivity of Nannochloropsis” value (Nannochloropsis [1]; sodium hypochlorite 20 Milligrams/Liter) was 570 Milligrams/Liter/Day, the “Mean Productivity of Nannochloropsis” value (Nannochloropsis [1]; sodium hypochlorite 40 Milligrams/Liter) was 460 Milligrams/Liter/Day and the “Mean Productivity of Nannochloropsis” value (Nannochloropsis [1]; sodium hypochlorite 80 Milligrams/Liter) was 0 Milligrams/Liter/Day. The “Nannochloropsis dominance throughout the cultivation period” value (Nannochloropsis [2]; 2.5-3 mg every other day, 22-24 PPT, over eight months) was “greater than 95%”, the “contamination versus non-chlorinated cultures at the same salinity” value (Nannochloropsis [2]; 22-24 PPT, cooler months) was “no observable difference” and the “contamination versus non-chlorinated cultures at the same salinity” value (Nannochloropsis [2]; 22-24 PPT, warmer months of the year) was “less contamination than non-chlorinated cultures”. The “culture stability over the run” value (Nannochloropsis [2]; condition four, about 250 days) was “without stability problems”, the “effect on productivity compared to condition three with no added chlorine” value (Nannochloropsis [2]; initial concentration 2.5-3 mg every other day, salinity 22-24 PPT) was “often had no effect on productivity” and the “growth of predators added to the chlorinated cultures” value [3] was “No predators were able to grow”.
